Read-outs that look alike come from different tables or passages of the source.

The conditions of data set [1]: 5 µM.
For data set [2] the following is noted: 5 µM. This is another data set of the same source.
Method: 50 uL aliquots of positive controls and test compounds spiked into rat or human plasma (n=2) were added to a pre-warmed plate (37° C.) and shaken at 50 rpm. At each respective time point, the reaction was stopped by adding 500 μL of acetonitrile containing internal standards (100 nM aprozolam, 200 nM caffeine, 100 nM tolbutamide). All samples were vortexed for 10 minutes, followed by centrifugation at 3,220 g for 30 minutes to precipitate proteins. 100 μL of the supernatant is transferred to a new plate. The supernatant will be diluted with ultrapure water according to the LC-MS signal response and peak shape.
Data set [3] can be described thus: Plasma Stability Assay of Example A3, mouse plasma. Conditions: % of prodrug compound remaining, 37° C.
The nature of data set [4]: Plasma Stability Assay of Example A3, human plasma. The following applies: % of prodrug compound remaining, 37° C.
Data set [5] in a line: Hydrolysis Assay of Example A2, Condition 1 (SGF with pepsin, pH 1.5, 37° C.). It counts as physicochemical. The following applies: SGF with pepsin pH 1.5, 37° C., 0.5 mM.
The format of data set [6] is physicochemical. Conditions: DI water, 25° C., 0.5 mM.

Regarding `COc1ccc([C@@]23CCC(OC(=O)c4ccc(C(C)C)cc4)=C[C@@H]2N(C)CC3)cc1OC` [Compound 371, (3aS,7aS)-3a-(3,4-dimethoxyphenyl)-1-methyl-2,3,3a,4,5,7a-hexahydro-1H-indol-6-yl 4-isopropylbenzoate], the “Rat Plasma Prodrug (%)” value in data set [1] (0 min) was determined as 100.0%; in data set [1] (10 min) it was 5.0%; in data set [1] (30 min) it was 0.2%; in data set [1] (60 min), 0.1%; in data set [1] (120 min), 0.0%; in data set [1] (240 min), 0.0%. Also, the “Human Plasma Prodrug (%)” value in data set [2] (0 min) was 100.0%; in data set [2] (10 min), greater than 99%; in data set [2] (30 min), 94.4%; in data set [2] (60 min), 90.7%; in data set [2] (120 min), 91.3%; in data set [2] (240 min), 78.0%. Also, the “Human Plasma Prodrug (%)” value in data set [4] (0.0 min) is recorded as 100%; in data set [4] (15 min) it was 99%; in data set [4] (30 min), 92%; in data set [4] (60 min), 87%; in data set [4] (120 min), 78%; in data set [4] (240 min), 27%. Moreover, the “Mouse Plasma Prodrug (%)” value turned out to be 100% in data set [3] (0.0 min); 10% in data set [3] (15 min); 0% in data set [3] (30 min); 0% in data set [3] (60 min); 0% in data set [3] (120 min); 0% in data set [3] (240 min).

Take `COc1ccc([C@]23CCN(C)[C@H]2CC2(CC3)OCC(C34CC5CC(CC(C5)C3)C4)O2)cc1OC` (stereo partly drawn) [Compound 281, (3′aS,7′aS)-4-(1-adamantyl)-3′a-(3,4-dimethoxyphenyl)-1′-methyl-spiro[1,3-dioxolane-2,6′-2,3,4,5,7,7a-hexahydroindole]]: the “Condition 1 Conversion (%)” value in data set [5] (time 1 min), in data set [5] (time 5 min), in data set [5] (time 30 min), in data set [5] (time 1 h), in data set [5] (time 4 h) and in data set [5] (time 24 h) was 0% throughout. The “Condition 2 Conversion (%)” value in data set [6] (time 1 min), in data set [6] (time 5 min), in data set [6] (time 30 min), in data set [6] (time 1 h), in data set [6] (time 4 h) and in data set [6] (time 24 h) was 0% in each case.

`COc1ccc([C@@]23CC/C(=N/NC(=O)Nc4ccccc4Cl)C[C@@H]2N(C)CC3)cc1OC` [Compound 270, 1-[(Z)—[(3aS,7aS)-3a-(3,4-dimethoxyphenyl)-1-methyl-2,3,4,5,7,7a-hexahydroindol-6-ylidene]amino]-3-(2-chlorophenyl)urea]: the “Condition 1 Conversion (%)” value in data set [5] (time 4 h) and in data set [5] (time 24 h) was 1% in each case. Besides, the “Condition 2 Conversion (%)” value in data set [6] (time 4 h) and in data set [6] (time 24 h) was 1% throughout.

Turning to `COc1ccc([C@@]23CCC(=NNC(=O)c4ccc(F)cc4)C[C@@H]2N(C)CC3)cc1OC` [Compound 220, N-[[(3aS)-3a-(3,4-dimethoxyphenyl)-1-methyl-2,3,4,5,7,7a-hexahydroindol-6-ylidene]amino]-4-fluoro-benzamide], the “Condition 2 Conversion (%)” value stood at 20.02% in data set [6] (time 1 min); 21.53% in data set [6] (time 5 min); 22.27% in data set [6] (time 30 min); 55.36% in data set [6] (time 1 h); 88.25% in data set [6] (time 4 h); 89.93% in data set [6] (time 24 h).

In the case of `COc1ccc([C@]23CCN(C)[C@H]2CC2(CC3)Oc3ccccc3O2)cc1OC` [Compound 300, (3′aS,7′aS)-3′a-(3,4-dimethoxyphenyl)-1′-methyl-spiro[1,3-benzodioxole-2,6′-2,3,4,5,7,7a-hexahydroindole]], the “Condition 1 Conversion (%)” value in data set [5] (time 1 min), in data set [5] (time 5 min), in data set [5] (time 30 min), in data set [5] (time 1 h), in data set [5] (time 4 h) and in data set [5] (time 24 h) was 0% throughout. Moreover, the “Condition 2 Conversion (%)” value in data set [6] (time 1 min), in data set [6] (time 5 min), in data set [6] (time 30 min), in data set [6] (time 1 h), in data set [6] (time 4 h) and in data set [6] (time 24 h) was 0% throughout.

For `CCCCC(=O)OC1=C[C@@H]2N(C)CC[C@]2(c2ccc(OC)c(OC)c2)CC1` [Compound 268, N-[[(3aS,7aS)-3a-(3,4-dimethoxyphenyl)-1-methyl-3,4,5,7a-tetrahydro-2H-indol-6-yl] pentanoate], the “Condition 1 Conversion (%)” value in data set [5] (time 1 min), in data set [5] (time 5 min), in data set [5] (time 30 min), in data set [5] (time 1 h), in data set [5] (time 4 h) and in data set [5] (time 24 h) was 0% in each case. Also, the “Condition 2 Conversion (%)” value in data set [6] (time 1 min), in data set [6] (time 5 min), in data set [6] (time 30 min), in data set [6] (time 1 h), in data set [6] (time 4 h) and in data set [6] (time 24 h) was 0% each time.

Regarding `COc1ccc([C@@]23CCC(=NNC(=O)CCCC(=O)O)C[C@@H]2N(C)CC3)cc1OC` [Compound 246, 5-(2-((3aS,7aS)-3a-(3,4-dimethoxyphenyl)-1-methyloctahydro-6H-indol-6-ylidene)hydrazineyl)-5-oxopentanoic acid], the “Condition 1 Conversion (%)” value in data set [5] (time 1 min), in data set [5] (time 5 min), in data set [5] (time 30 min), in data set [5] (time 1 h), in data set [5] (time 4 h) and in data set [5] (time 24 h) was 100% in each case. Further, the “Condition 2 Conversion (%)” value was found to be 40% in data set [6] (time 1 min); 50% in data set [6] (time 5 min); 60% in data set [6] (time 30 min); 75% in data set [6] (time 1 h); 100% in data set [6] (time 4 h); 100% in data set [6] (time 24 h).

Consider `COc1ccc([C@@]23CCC(OC(=O)c4c(C)cccc4C)=C[C@@H]2N(C)CC3)cc1OC` [Compound 372, (3aS,7aS)-3a-(3,4-dimethoxyphenyl)-1-methyl-2,3,3a,4,5,7a-hexahydro-1H-indol-6-yl 2,6-dimethylbenzoate], for which the “Rat Plasma Prodrug (%)” value is listed as 100.0% in data set [1] (0 min); greater than 99% in data set [1] (10 min); greater than 99% in data set [1] (30 min); greater than 99% in data set [1] (60 min); 98.4% in data set [1] (120 min); greater than 99% in data set [1] (240 min). In addition, the “Human Plasma Prodrug (%)” value was 100.0% in data set [2] (0 min); greater than 99% in data set [2] (10 min); greater than 99% in data set [2] (30 min); greater than 99% in data set [2] (60 min); greater than 99% in data set [2] (120 min); greater than 99% in data set [2] (240 min). Further, the “Human Plasma Prodrug (%)” value is recorded as 100% in data set [4] (0.0 min); 97% in data set [4] (15 min); 99% in data set [4] (30 min); 94% in data set [4] (60 min); 81% in data set [4] (120 min); 38% in data set [4] (240 min). In addition, the “Mouse Plasma Prodrug (%)” value in data set [3] (0.0 min) is listed as 100%; in data set [3] (15 min), 92%; in data set [3] (30 min), 91%; in data set [3] (60 min), 88%; in data set [3] (120 min), 73%; in data set [3] (240 min), 64%.

As to `COc1ccc([C@]23CCN(C)[C@H]2CC2(CC3)OCC(COc3ccccc3OC)O2)cc1OC` (stereo partly drawn) [Compound 216, (3′aS,7′aS)-3′a-(3,4-dimethoxyphenyl)-4-[(2-methoxyphenoxy)methyl]-1′-methyl-spiro[1,3-dioxolane-2,6′-2,3,4,5,7,7a-hexahydroindole]], the “Condition 1 Conversion (%)” value in data set [5] (time 1 min), in data set [5] (time 5 min), in data set [5] (time 30 min), in data set [5] (time 1 h), in data set [5] (time 4 h) and in data set [5] (time 24 h) was 0% each time. Moreover, the “Condition 2 Conversion (%)” value in data set [6] (time 1 min), in data set [6] (time 5 min), in data set [6] (time 30 min), in data set [6] (time 1 h), in data set [6] (time 4 h) and in data set [6] (time 24 h) was 0% each time.

Source of the values: patent US12269800B2, “Delivery of therapeutic alkaloid compounds” (priority 2021, dated 2025).
